Source: the supplement of paper PMC6045584
± gives the standard deviation of the averaged measurements.

What was measured:
[1] = compound: CCN(CC)CCCCNc1ncc2cc(-c3cc(OC)cc(OC)c3)c(NC(=O)NC(C)(C)C)nc2n1; test: surviving fraction relative to DMSO-only wells; higher = less growth inhibition; conditions: exposure time: 5 days
In short: (§1)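 Surviving fraction was calculated by normalising CellTiter-Glo luminescence to the median of DMSO-only wells. Tumour cell lines in log phase were seeded in 384-well plates at 250–500 cells per well, and 24 hours later were exposed continuously for five days to inhibitors at 0.5, 1, 5, 10, 50, 100, 500 and 1000 nM.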

SALINOMYCIN = compound: CC[C@@H](C(=O)[C@@H](C)[C@@H](O)[C@H](C)[C@@H]1O[C@@H]([C@@H](CC)C(=O)O)CC[C@@H]1C)[C@H]1O[C@]2(C=C[C@@H](O)[C@]3(CC[C@@](C)([C@H]4CC[C@](O)(CC)[C@H](C)O4)O3)O2)[C@H](C)C[C@@H]1C [SALINOMYCIN]; test: as above; conditions: exposure time: 5 days
In short: as §1

Row | Test System | surviving fraction ([1]; 0.5 nM) | surviving fraction ([1]; 1 nM) | surviving fraction ([1]; 5 nM) | surviving fraction ([1]; 10 nM) | surviving fraction ([1]; 50 nM) | surviving fraction ([1]; 100 nM) | surviving fraction ([1]; 500 nM) | surviving fraction ([1]; 1000 nM) | surviving fraction (SALINOMYCIN; 0.5 nM) | surviving fraction (SALINOMYCIN; 1 nM) | surviving fraction (SALINOMYCIN; 5 nM) | surviving fraction (SALINOMYCIN; 10 nM) | surviving fraction (SALINOMYCIN; 50 nM) | surviving fraction (SALINOMYCIN; 100 nM) | surviving fraction (SALINOMYCIN; 500 nM) | surviving fraction (SALINOMYCIN; 1000 nM)
1 | MDAMB361 BREAST | 0.945 ± 0.025 | 0.917 ± 0.056 | 0.855 ± 0.092 | 0.839 ± 0.051 | 0.955 ± 0.097 | 0.846 ± 0.034 | 0.937 ± 0.065 | 0.859 ± 0.025 | 0.826 ± 0.086 | 0.866 ± 0.041 | 0.877 ± 0.0093 | 0.845 ± 0.058 | 0.909 ± 0.047 | 0.845 ± 0.035 | 0.753 ± 0.014 | 0.638 ± 0.0085
2 | MDAMB436 BREAST | 0.974 ± 0.053 | 0.802 ± 0.074 | 0.912 ± 0.026 | 0.911 ± 0.041 | 0.943 ± 0.1 | 0.974 ± 0.033 | 0.911 ± 0.032 | 0.878 ± 0.032 | 0.858 ± 0.039 | 0.902 ± 0.047 | 0.668 ± 0.033 | 0.567 ± 0.042 | 0.464 ± 0.059 | 0.375 ± 0.049 | 0.105 ± 0.0028 | 0.0963 ± 0.0055
3 | MDAMB453 BREAST | 0.981 ± 0.029 | 1.03 ± 0.032 | 1.05 ± 0.058 | 1.05 ± 0.043 | 1.03 ± 0.082 | 1.04 ± 0.09 | 1.07 ± 0.033 | 0.814 ± 0.053 | 0.969 ± 0.025 | 0.9587 ± 0.0015 | 0.978 ± 0.027 | 0.9897 ± 0.009 | 1.02 ± 0.058 | 0.993 ± 0.045 | 0.56 ± 0.032 | 0.426 ± 0.06
4 | MDAMB468 BREAST | 0.929 ± 0.043 | 0.959 ± 0.06 | 0.996 ± 0.005 | 0.985 ± 0.003 | 0.975 ± 0.055 | 1.1 ± 0.033 | 0.983 ± 0.033 | 0.956 ± 0.021 | 1 ± 0.02 | 1 ± 0.087 | 1.04 ± 0.026 | 1.01 ± 0.052 | 1.12 ± 0.022 | 1.09 ± 0.04 | 0.648 ± 0.054 | 0.329 ± 0.018
5 | MFM223 BREAST | 1.02 ± 0.04 | 1.1 ± 0.022 | 0.982 ± 0.1 | 0.823 ± 0.089 | 0.361 ± 0.029 | 0.277 ± 0.019 | 0.282 ± 0.026 | 0.258 ± 0.012 | 1.08 ± 0.091 | 1.05 ± 0.024 | 1.03 ± 0.03 | 1.01 ± 0.036 | 0.979 ± 0.051 | 0.461 ± 0.03 | 0.0642 ± 0.0082 | 0.0428 ± 0.0051
6 | MG63 BONE | 0.9463 ± 0.0067 | 0.983 ± 0.012 | 0.998 ± 0.013 | 0.965 ± 0.016 | 0.8687 ± 0.0035 | 0.771 ± 0.013 | 0.6363 ± 0.0049 | 0.641 ± 0.016 | 0.963 ± 0.02 | 0.941 ± 0.032 | 0.98 ± 0.021 | 0.946 ± 0.045 | 1.006 ± 0.003 | 0.871 ± 0.0095 | 0.167 ± 0.0053 | 0.081 ± 0.0044
7 | MHM BONE | 0.991 ± 0.026 | 0.993 ± 0.014 | 0.982 ± 0.023 | 1.001 ± 0.0095 | 0.964 ± 0.02 | 0.915 ± 0.029 | 0.7063 ± 0.007 | 0.664 ± 0.017 | 0.988 ± 0.042 | 0.981 ± 0.046 | 1.01 ± 0.019 | 0.9657 ± 0.0042 | 1.037 ± 0.009 | 1.081 ± 0.0025 | 0.921 ± 0.044 | 0.694 ± 0.054
8 | NCIH441 LUNG | 1 ± 0.052 | 1.04 ± 0.052 | 1 ± 0.022 | 1.01 ± 0.09 | 1.04 ± 0.052 | 1.01 ± 0.059 | 1.02 ± 0.053 | 1.06 ± 0.051 | 1.01 ± 0.034 | 1.01 ± 0.038 | 1.06 ± 0.054 | 0.904 ± 0.06 | 1.12 ± 0.023 | 1.05 ± 0.049 | 0.715 ± 0.049 | 0.504 ± 0.061
9 | NOS1 BONE | 1.11 ± 0.046 | 1.19 ± 0.1 | 1.15 ± 0.094 | 1.08 ± 0.056 | 0.989 ± 0.16 | 0.965 ± 0.11 | 0.609 ± 0.046 | 0.37 ± 0.05 | 1.01 ± 0.071 | 1.07 ± 0.15 | 1.09 ± 0.025 | 1.05 ± 0.066 | 1.06 ± 0.083 | 1.09 ± 0.062 | 0.0907 ± 0.013 | 0.0537 ± 0.007
10 | NY BONE | 0.932 ± 0.031 | 0.942 ± 0.013 | 0.964 ± 0.015 | 1 ± 0.029 | 0.895 ± 0.019 | 0.701 ± 0.015 | 0.337 ± 0.019 | 0.31 ± 0.004 | 0.929 ± 0.024 | 0.9297 ± 0.0087 | 0.965 ± 0.018 | 0.928 ± 0.021 | 0.851 ± 0.028 | 0.654 ± 0.0095 | 0.241 ± 0.009 | 0.136 ± 0.0072
11 | OS25HAL BONE | 0.969 ± 0.0072 | 0.983 ± 0.023 | 0.973 ± 0.0036 | 1 ± 0.025 | 1 ± 0.0091 | 1 ± 0.013 | 0.979 ± 0.0085 | 1.03 ± 0.03 | 0.952 ± 0.016 | 0.943 ± 0.012 | 0.964 ± 0.02 | 0.932 ± 0.02 | 0.979 ± 0.031 | 0.792 ± 0.017 | 0.122 ± 0.014 | 0.0527 ± 0.0015
12 | OSHN BONE | 1 ± 0.016 | 1.01 ± 0.017 | 1.01 ± 0.024 | 1.03 ± 0.033 | 0.993 ± 0.023 | 1.01 ± 0.033 | 1.02 ± 0.035 | 1.04 ± 0.042 | 1.02 ± 0.019 | 1.01 ± 0.011 | 1.01 ± 0.016 | 1.02 ± 0.02 | 1.01 ± 0.018 | 0.966 ± 0.013 | 0.247 ± 0.005 | 0.115 ± 0.0046
13 | PCI30 HEADNECK | 0.906 ± 0.074 | 0.969 ± 0.09 | 0.984 ± 0.11 | 1.08 ± 0.058 | 1.04 ± 0.054 | 1.1 ± 0.1 | 0.912 ± 0.011 | 0.995 ± 0.093 | 0.829 ± 0.026 | 0.895 ± 0.025 | 1.01 ± 0.07 | 0.945 ± 0.03 | 0.813 ± 0.013 | 0.64 ± 0.064 | 0.202 ± 0.005 | 0.145 ± 0.0085
14 | RDES SOFT TISSUE | 1.2 ± 0.034 | 1.35 ± 0.094 | 1.25 ± 0.088 | 1.26 ± 0.11 | 1.13 ± 0.032 | 1.25 ± 0.16 | 1.08 ± 0.29 | 1.06 ± 0.1 | 1.12 ± 0.12 | 1.21 ± 0.03 | 1.17 ± 0.2 | 1.12 ± 0.13 | 0.438 ± 0.22 | 0.0573 ± 0.0031 | 0.399 ± 0.021 | 0.218 ± 0.014
15 | S68 BREAST | 0.948 ± 0.29 | 1.01 ± 0.22 | 1.285 ± 0.0036 | 0.836 ± 0.1 | 1.02 ± 0.06 | 1.11 ± 0.3 | 0.864 ± 0.18 | 0.81 ± 0.22 | 0.923 ± 0.097 | 0.998 ± 0.14 | 1.37 ± 0.22 | 1.04 ± 0.29 | 0.934 ± 0.22 | 0.731 ± 0.079 | 0.337 ± 0.099 | 0.209 ± 0.03
16 | SAOS2 BONE | 1.09 ± 0.035 | 1.195 ± 0.011 | 1.2 ± 0.077 | 1.21 ± 0.042 | 1.23 ± 0.043 | 1.19 ± 0.037 | 0.995 ± 0.051 | 0.906 ± 0.054 | 0.98 ± 0.038 | 0.902 ± 0.077 | 0.946 ± 0.073 | 0.8803 ± 0.0075 | 1.06 ± 0.097 | 1.11 ± 0.05 | 0.763 ± 0.016 | 0.488 ± 0.018
